Consider eight compounds from ChEMBL document CHEMBL5104132, “Identification of sugar-containing natural products that interact with i-motif DNA” (Bioorg Med Chem Lett, 2022).

Type in all cases: nucleic-acid assay
For assay [1], the system named is i-motif DNA. Kind of assay: Binding affinity to human telomeric 1ELN i-motif DNA assessed as change in melting temperature at 20 uM at pH 7.4 by FRET assay.
For assay [2], the system named is Quadruplex DNA. Kind of assay: Binding affinity to human ILPR G4 quadruplex DNA assessed as change in melting temperature at 20 uM at pH 7.4 by FRET assay.
The test system of assay [3] is i-motif DNA. The assay is described as follows: Binding affinity to human ILPR i-motif DNA assessed as change in melting temperature at 20 uM at pH 7.4 by FRET assay.
Assay [4] concerns Quadruplex DNA. Kind of assay: Binding affinity to human telomeric IKF1 G4 quadruplex DNA assessed as change in melting temperature at 20 uM at pH 7.4 by FRET assay.
The subject of assay [5] is i-motif DNA. Kind of assay: Binding affinity to human telomeric 1ELN i-motif DNA assessed as change in melting temperature at 20 uM at pH 5.5 by FRET assay.
The test system of assay [6] is dsDNA. Kind of assay: Binding affinity to human 1BNA double stranded DNA assessed as change in melting temperature at 20 uM at pH 7.4 by FRET assay.
Assay [7] has as its system i-motif DNA. The assay is described as follows: Binding affinity to human ILPR i-motif DNA assessed as change in melting temperature at 20 uM at pH 5.5 by FRET assay.
Assay [8] addresses dsDNA. Kind of assay: Binding affinity to human double stranded DNA by SPR analysis.
In assay [9] the target is i-motif DNA. Kind of assay: Binding affinity to human telomeric i-motif DNA by SPR analysis. Background: In SPR one partner is held on a chip, and binding of the other changes the refractive index at the surface.
The target of assay [10] is i-motif DNA. The assay is described as follows: Binding affinity to human c-Myc promoter i-motif DNA by SPR analysis.
For assay [11], the system named is i-motif DNA. Kind of assay: Displacement of thiazole orange from human telomeric 1ELN i-motif DNA at 10 equiv. at pH 7.4 by fluorescent intercalator displacement assay.
Assay [12] relates to i-motif DNA. The assay is described as follows: Displacement of thiazole orange from human ILPR i-motif DNA at 100 equiv. at pH 5.5 by fluorescent intercalator displacement assay.
Assay [13] relates to i-motif DNA. Kind of assay: Displacement of thiazole orange from human telomeric 1ELN i-motif DNA at 100 equiv. at pH 7.4 by fluorescent intercalator displacement assay.
In assay [14] the test system is Quadruplex DNA. Kind of assay: Displacement of thiazole orange from human ILPR G4 quadruplex DNA at 10 equiv. at pH 7.4 by fluorescent intercalator displacement assay.
For assay [15], the system named is Quadruplex DNA. Kind of assay: Displacement of thiazole orange from human telomeric IKF1 G4 quadruplex DNA at 10 equiv. at pH 7.4 by fluorescent intercalator displacement assay.
Assay [16] concerns Quadruplex DNA. Kind of assay: Displacement of thiazole orange from human telomeric IKF1 G4 quadruplex DNA at 100 equiv. at pH 7.4 by fluorescent intercalator displacement assay.
Assay [17] relates to i-motif DNA. The assay is described as follows: Displacement of thiazole orange from human telomeric 1ELN i-motif DNA at 10 equiv. at pH 5.5 by fluorescent intercalator displacement assay.
For assay [18], the system named is i-motif DNA. The assay is described as follows: Displacement of thiazole orange from human ILPR i-motif DNA at 10 equiv. at pH 5.5 by fluorescent intercalator displacement assay.
Assay [19] concerns i-motif DNA. The assay is described as follows: Displacement of thiazole orange from human ILPR i-motif DNA at 100 equiv. at pH 7.4 by fluorescent intercalator displacement assay.
Assay [20] concerns Quadruplex DNA. Kind of assay: Displacement of thiazole orange from human ILPR G4 quadruplex DNA at 100 equiv. at pH 7.4 by fluorescent intercalator displacement assay.
In assay [21] the test system is dsDNA. The assay is described as follows: Displacement of thiazole orange from human 1BNA double stranded DNA at 10 equiv. at pH 7.4 by fluorescent intercalator displacement assay.
Assay [22] relates to i-motif DNA. The assay is described as follows: Displacement of thiazole orange from human telomeric 1ELN i-motif DNA at 100 equiv. at pH 5.5 by fluorescent intercalator displacement assay.
Assay [23] deals with dsDNA. The assay is described as follows: Displacement of thiazole orange from human 1BNA double stranded DNA at 100 equiv. at pH 7.4 by fluorescent intercalator displacement assay.
The subject of assay [24] is i-motif DNA. The assay is described as follows: Displacement of thiazole orange from human ILPR i-motif DNA at 10 equiv. at pH 7.4 by fluorescent intercalator displacement assay.

With `O=c1ccc2cc(O[C@@H]3O[C@H](CO)[C@@H](O)[C@H](O)[C@H]3O)c(O)cc2o1`, the ΔTm in [1] is -6.4 °C; in [2], -2.4 °C; in assay [3] it was -2.6 °C; in [4], -7.6 °C; in assay [5], -0.4 °C; in assay [6], -2.7 °C. For the same compound, the ΔTm in assay [7] was 0 °C.
For `NC[C@H]1O[C@H](O[C@H]2[C@H](O)[C@@H](O[C@H]3O[C@H](CO)[C@@H](O)[C@H](N)[C@H]3O)[C@H](N)C[C@@H]2N)[C@H](N)C[C@@H]1O` [TOBRAMYCIN], the Kd worked out at 18 µM in assay [8], 17 µM in assay [9] and 13 µM in assay [10].
Take `O=c1c(-c2ccc(O)cc2)coc2cc(O[C@@H]3O[C@H](CO)[C@@H](O)[C@H](O)[C@H]3O)cc(O)c12`: the ΔTm in [1] was -5.4 °C; in [2] it was -4.7 °C; in [3], -2.4 °C; in assay [4], -6.6 °C; in assay [5], -0.8 °C; in assay [6], -3 °C. Besides, the ΔTm in assay [7] is -0.4 °C. The Activity in assay [11] was 16.2%; in assay [12] it was 23.5%; in assay [13], -288%; in assay [14] it was 1.6%; in assay [15] it was 20.8%; in assay [16] it was 28.7%. Further, the Activity is 0.6% in assay [17]; 5.3% in assay [18]; 31.8% in assay [19]; 6.4% in [20]; 6.2% in assay [21]; 19.3% in [22]. The Activity in assay [23] came to 14.5%; in assay [24], 24.2%.
For `O=C(O)C1=CO[C@@H](O[C@@H]2O[C@H](CO)[C@@H](O)[C@H](O)[C@H]2O)[C@@H]2C(CO)=CC[C@H]12`, the ΔTm is -2.5 °C in assay [1]; -3.6 °C in assay [2]; -2.2 °C in assay [3]; -4.7 °C in [4]; -0.5 °C in assay [5]; -4.8 °C in assay [6]. Also, the ΔTm in assay [7] was -0.3 °C. Also, the Activity in [11] was 2.6%; in assay [12] it was 25.3%; in [13], -37.8%; in assay [14], 4.1%; in assay [15], 23%; in [16] it was 25.2%. In addition, the Activity in [17] was -10.2%; in [18] it was -3.5%; in [19] it was 22%; in [20] it was 1.4%; in assay [21], 6.4%; in assay [22], 22.9%. Moreover, the Activity in [23] came out at 9.6%; in assay [24] it was 12.3%.
As to `O=c1c(-c2ccc(O)cc2)coc2cc(O[C@@H]3O[C@H](CO)[C@@H](O)[C@H](O)[C@H]3O)ccc12`, the ΔTm in assay [1] was 0 °C; in assay [2] it was -1.8 °C; in [3], -2.4 °C; in assay [4], -2.4 °C; in assay [5] it was -0.3 °C; in [6] it was -2.3 °C. Besides, in assay [7], the ΔTm was -0.1 °C. The Activity in assay [11] was 14.9%; in [12], 22.6%; in [13] it was -154%; in assay [14] it was 2.6%; in assay [15], 20.9%; in [16], 29%. Also, the Activity in [17] is -4.2%; in [18] it was -2.5%; in assay [19], 28.9%; in assay [20], 2.4%; in assay [21] it was 7%; in [22], 20.3%. The results for the Activity in assay [23] and in assay [24] were 10.9% and 20%, respectively.
Turning to `OC[C@H]1O[C@@H](O[C@@H]2[C@@H](CO)O[C@](O)(CO)[C@H]2O)[C@H](O)[C@@H](O)[C@H]1O`, the ΔTm was -3.7 °C in assay [1]; -4.6 °C in assay [2]; -2.7 °C in assay [3]; -4 °C in assay [4]; -0.4 °C in assay [5]; -2.7 °C in [6]. For the same compound, the ΔTm in assay [7] was -0.3 °C. In addition, the Activity in [11] is -54%; in assay [12], 23.1%; in assay [13], -68%; in [14] it was 0.9%; in [15], 21.4%; in assay [16], 26.1%. Moreover, the Activity in assay [17] is -28.4%; in assay [18], -5%; in [19], 34.7%; in [20] it was 0.4%; in assay [21] it was 4.3%; in assay [22], 20.2%. Also, the Activity in [23] turned out to be 9%; in assay [24], 26.7%.
On to `O=C(O)[C@H]1O[C@@H](Oc2cc3oc(-c4ccccc4)cc(=O)c3c(O)c2O)[C@H](O)[C@@H](O)[C@@H]1O`, for which the ΔTm in [1] is -3.9 °C; in assay [2], -3.8 °C; in assay [3], -2.6 °C; in [4] it was -1.8 °C; in assay [5] it was -0.4 °C; in assay [6], -2.5 °C. In assay [7], the ΔTm was -0.3 °C. Also, the Activity in [11] is -3.8%; in assay [12], 35.3%; in assay [13] it was -91.2%; in [14], 4.9%; in assay [15], 24%; in [16] it was 46.3%. Also, the Activity in assay [17] was determined as 12.2%; in [18], 9.5%; in assay [19] it was 38.5%; in assay [20] it was 17.7%; in assay [21], 8.2%; in [22], 36.5%. For the same compound, the Activity in assay [23] turned out to be 25.3%; in assay [24], 23.9%.
In the case of `COC(=O)C1=CO[C@@H](O[C@@H]2O[C@H](CO)[C@@H](O)[C@H](O)[C@H]2O)[C@@H]2C(CO)=CC[C@H]12`, the ΔTm in [1] is -1.8 °C; in assay [2] it was -2.9 °C; in [3] it was -1.8 °C; in assay [4] it was -6.1 °C; in assay [5], -0.5 °C; in [6] it was -3.5 °C. For the same compound, the ΔTm in assay [7] is -0.1 °C. Besides, the Activity in assay [11] was -32%; in assay [12], 27.9%; in [13] it was -84.1%; in assay [14], -6.7%; in assay [15] it was 23.1%; in assay [16] it was 25.7%. Besides, the Activity is -9.5% in assay [17]; 7.2% in assay [18]; 31.8% in assay [19]; 1.8% in assay [20]; 8.5% in assay [21]; 32.3% in assay [22]. Besides, the Activity in assay [23] was determined as 11.2%; in [24], 21.2%.

The term ΔTm denotes the shift of the melting midpoint relative to a reference. The term Kd denotes the equilibrium constant for the complex coming apart. The low end stands for tighter binding, the high end for weaker binding.
